≈ marks a conversion by molar mass, not a printed value.
Experiments:
[1] = Hemolytic activity in human red blood cells at 400 ug/ml incubated for 45 mins by spectrophotometric analysis relative to control; type: toxicity, cell-based, Erythrocyte; conditions: red blood cells (erythrocytes), at 400 µg/mL, read-out: Activity
Klebsiella pneumoniae = assay: Antibacterial activity against wild-type Klebsiella pneumoniae ATCC 13883 assessed as inhibition of bacterial growth incubated for 18 hrs; type: functional; conditions: read-out: MIC100
[2] = Cytotoxicity against human HepG2 cells incubated for 40 hrs by celltiter-glo luminescent cell viability assay; type: toxicity, cell-based
Escherichia coli = assay: Antibacterial activity against wild-type Escherichia coli ATCC 25922 assessed as inhibition of bacterial growth incubated for 18 hrs; type: functional; conditions: read-out: MIC100

Row | MIC (Klebsiella pneumoniae) [µg/mL] | MIC (Escherichia coli) [µg/mL] | Compound | hemolysis at 0.75 h, 400 ug/ml [1] [%] | IC50 at 40 h [2] [µg/mL]
1 | 64 (≈ 42.8 µM) | 64 (≈ 42.8 µM) | CC[C@H](C)[C@@H](NC(=O)[C@@H](NC(=O)[C@H](CCC(=O)O)NC(=O)[C@H](Cc1ccccc1)NC(=O)[C@@H](CCN)NC(=O)[C@H](CCN)NC(=O)[C@H](CO)NC(=O)[C@@H](Cc1c[nH]c2ccccc12)NC(=O)[C@@H](CO)NC(=O)CNC(=O)[C@@H](CCN)NC(=O)[C@H](NC(=O)[C@@H](N)CCN)C(C)C)C(C)C)C(=O)N[C@@H](C)C(=O)O | 10 | > 70
2 | 64 (≈ 46.4 µM) | > 64 | CC[C@H](C)[C@@H](NC(=O)[C@@H](NC(=O)[C@H](CCC(=O)O)NC(=O)[C@H](Cc1ccccc1)NC(=O)[C@@H](CCN)NC(=O)[C@H](CCN)NC(=O)[C@H](CO)NC(=O)[C@@H](Cc1c[nH]c2ccccc12)NC(=O)[C@@H](C)NC(=O)CNC(=O)[C@@H](CCN)NC(=O)[C@H](N)C(C)C)C(C)C)C(=O)N[C@@H](C)C(=O)O | 0 | > 170
3 | 8 (≈ 5.41 µM) | 8 (≈ 5.41 µM) | CC[C@H](C)[C@@H](NC(=O)[C@@H](NC(=O)[C@H](CCC(=O)O)NC(=O)[C@H](Cc1ccccc1)NC(=O)[C@@H](CCN)NC(=O)[C@H](CCN)NC(=O)[C@H](CO)NC(=O)[C@@H](Cc1c[nH]c2ccccc12)NC(=O)[C@@H](CO)NC(=O)CNC(=O)[C@@H](CCN)NC(=O)[C@H](NC(=O)C(C)(C)N)C(C)C)C(C)C)C(=O)N[C@@H](C)C(=O)O | 8.5 | 83 (≈ 56.1 µM)
4 | > 64 | > 64 | CC[C@H](C)[C@@H](NC(=O)[C@@H](NC(=O)[C@H](CCC(=O)O)NC(=O)[C@H](Cc1ccccc1)NC(=O)[C@@H](CCN)NC(=O)[C@H](CCN)NC(=O)[C@H](CO)NC(=O)[C@@H](Cc1c[nH]c2ccccc12)NC(=O)[C@@H](CCN)NC(=O)CNC(=O)[C@@H](CCN)NC(=O)[C@H](N)C(C)C)C(C)C)C(=O)N[C@@H](C)C(=O)O | 0 | > 170
5 | 32 (≈ 22.3 µM) | 32 (≈ 22.3 µM) | CC[C@H](C)[C@@H](NC(=O)[C@@H](NC(=O)[C@H](CCC(=O)O)NC(=O)[C@H](Cc1ccccc1)NC(=O)[C@@H](CCN)NC(=O)[C@H](CCN)NC(=O)[C@H](CO)NC(=O)[C@@H](Cc1c[nH]c2ccccc12)NC(=O)[C@@H](CO)NC(=O)CNC(=O)[C@@H](CCN)NC(=O)[C@H](N)C(C)C)C(C)C)C(=O)N[C@H](C(=O)O)C(C)(C)C | 12.1 | 43 (≈ 29.9 µM)
6 | 32 (≈ 21.6 µM) | 16 (≈ 10.8 µM) | CC[C@H](C)[C@@H](NC(=O)[C@@H](NC(=O)[C@H](CCC(=O)O)NC(=O)[C@H](Cc1ccccc1)NC(=O)[C@@H](CCN)NC(=O)[C@H](CCN)NC(=O)[C@H](CO)NC(=O)[C@@H](Cc1c[nH]c2ccccc12)NC(=O)[C@@H](CO)NC(=O)[C@H](C)NC(=O)[C@@H](CCN)NC(=O)[C@H](NC(=O)[C@H](C)N)C(C)C)C(C)C)C(=O)N[C@@H](C)C(=O)O | 31.9 | 74 (≈ 50 µM)
7 | > 64 | > 64 | CC[C@H](C)[C@@H](NC(=O)[C@@H](NC(=O)[C@H](CCC(=O)O)NC(=O)[C@H](Cc1ccccc1)NC(=O)[C@@H](CCN)NC(=O)[C@H](CCN)NC(=O)[C@H](CO)NC(=O)[C@@H](Cc1c[nH]c2ccccc12)NC(=O)[C@@H](CO)NC(=O)CNC(=O)[C@@H](CCN)NC(=O)[C@@H](C)N)C(C)C)C(=O)N[C@@H](C)C(=O)O | 6.4 | 131 (≈ 95.9 µM)
8 | 16 (≈ 10.8 µM) | 32 (≈ 21.6 µM) | CC[C@H](C)[C@@H](NC(=O)[C@@H](NC(=O)[C@H](CCC(=O)O)NC(=O)[C@H](Cc1ccccc1)NC(=O)[C@@H](CCN)NC(=O)[C@H](CCN)NC(=O)[C@H](CO)NC(=O)[C@@H](Cc1c[nH]c2ccccc12)NC(=O)[C@@H](CO)NC(=O)CNC(=O)[C@@H](CCN)NC(=O)[C@H](NC(=O)[C@@H](N)CO)C(C)C)C(C)C)C(=O)N[C@@H](C)C(=O)O | 4.2 | > 170

Reference: ChEMBL document CHEMBL5518181, “Studies of antibacterial activity (in vitro and in vivo) and mode of action for des-acyl tridecaptins (DATs)” (Eur J Med Chem, 2024)
